Patent publication US11839212B2, “Synergistic pesticidal compositions and methods for delivery of insecticidal active ingredients” (0903608 B.C. Ltd., priority 2018, dated 2023)
Like-named read-outs stand apart in the source and are kept apart here. Values belong to the molecule of their own block, whether it stands above or below them.

Key:
Assay in all cases: Synergistic Growth Inhibition Assay (MIC and FIC index, 96-well, resazurin)
Type in all cases: cell-based
Botrytis cinerea = conditions: for MIC: Botrytis cinerea, 48 h
Description: (§1) In some embodiments, the synergistic action between the pesticidal active ingredient, and the at least one C6-C10 (or alternatively C11 or C12) saturated or unsaturated aliphatic acid components of the pesticidal compositions according to embodiments of the present disclosure was tested using a Synergistic Growth Inhibition Assay, which is derived from and related to a checkerboard assay as is known in the art for testing of combinations of antimicrobial agents. In the Synergistic Growth Inhibition Assay used in accordance with some embodiments of the present disclosure, multiple dilutions of combinations of pesticidal active ingredient and at least one C6-C10 saturated or unsaturated aliphatic acid agents are tested in individual cells for inhibitory activity against a target pest or pathogenic organism. In one such embodiment, the combinations of pesticidal active ingredient and C6-C10 (or alternatively C11 or C12) saturated or unsaturated aliphatic acid agents may preferably be tested in decreasing concentrations. In a further such embodiment, the combinations of pesticidal active ingredient and C6-C10 (or alternatively C11 or C12) saturated or unsaturated aliphatic acid agents may be tested in increasing concentrations. These multiple combinations of the pesticidal active ingredient and at least one C6-C10 (or alternatively C11 or C12) saturated or unsaturated aliphatic acid agents may be prepared in 96-well microtiter plates. In one such embodiment, the Synergistic Growth Inhibition Assay then comprises rows which each contain progressively decreasing concentrations of the pesticidal active ingredient and one or more C6-C10 (or alternatively C11 or C12) saturated or unsaturated aliphatic acid agents to test for the MIC of the agents in combination at which growth of the target pest or pathogen is inhibited. Thus, each well of the microtiter plate is a unique combination of the two agents, at which inhibitory efficacy of the combination against the target pest or pathogen can be determined.
(§2) In one embodiment according to the present disclosure, for each row of microtiter cells in the Synergistic Growth Inhibition Assay, the FIC index is calculated from the lowest concentration of the pesticidal active ingredient and one or more C6-C10 saturated or unsaturated aliphatic acid agents necessary to inhibit growth of a target pest or pathogen. The FIC of each component is derived by dividing the concentration of the agent present in that well of the microtiter plate by the minimal inhibitory concentration (MIC) needed of that agent alone to inhibit growth of the target pest or pathogen. The FIC index is then the sum of these values for both agents in that well of the microtiter plate. […] Fractional inhibitory concentration indices may then used as measure of synergy. […] When the FIC index is equal to 1, the combination is additive.
(§3) Then, serial dilutions of these initial compositions in successive wells in the row of the microtiter plate were used to assay the pesticidal composition under the same conditions to determine the concentration of the composition combining the two agents corresponding to the microtiter well in which growth inhibition of the target pest or organism ceases.
(§4) Similarly to as described above, Resazurin was used as an indicator of growth or inhibition of growth of Botrytis cinerea in the exemplary Synergistic Growth Inhibition Assay. In addition to the color change of the resazurin, an optical or visual examination of the microtiter well may also be made to additionally determine the presence of growth or inhibition of growth of the Botrytis cinerea.

Alternaria solani = conditions: for MIC: Alternaria solani, read-out: MIC (B); for MIC (A): Compound A alone
Description: as §1, §2, §3
A culture of the representative fungal pathogen, namely Fusarium oxysporum, Botrytis cinerea, or Sclerotinia sclerotiorum, for example, is grown to exponential phase in potato dextrose broth (PDB).

Fusarium oxysporum = conditions: for MIC: Fusarium oxysporum
Description: as §1, §2, §3
Resazurin dye (also known as Alamar blue dye) was used as an indicator to determine the presence of growth or inhibition of growth of Fusarium oxysporum in the wells of the 96 well microtiter plates used in the exemplary Synergistic Growth Inhibition Assay. In addition to the color change of the resazurin dye in the presence of growth of the Fusarium oxysporum, an optical or visual examination of the microtiter well may also be made to additionally determine the presence of growth or inhibition of growth of the Fusarium oxysporum.

Sclerotinia sclerotiorum = conditions: for MIC: Sclerotinia sclerotiorum
Description: as §1, §2, §3
as §4, with “Sclerotinia sclerotiorum” for “Botrytis cinerea”, “Sclerotinia sclerotiorum.” for “Botrytis cinerea.”

[1] = Table 51, Compound B alone, 48 hours incubation, read-out: MIC (B)
[2] = Table 56, Compound B alone, 48 hours incubation, read-out: MIC (B)
[3] = Table 59, Compound B alone, 48 hours incubation, read-out: MIC (B)
[4] = Compound B alone, 7 days incubation
[5] = 48 h, Table 15B, Compound A alone, incubation 48 hours, read-out: MIC (A)
[6] = Table 20B, Compound A alone, incubation 7 days, read-out: MIC (A)
[7] = Table 23, Compound A alone, incubation 48 hours, read-out: MIC (A)
[8] = Table 19, Compound A alone, incubation 7 days, read-out: MIC (A)

- MIC (Botrytis cinerea; [1]): 625 µg/mL
- MIC (Botrytis cinerea; [2]): 625 µg/mL
- MIC (Botrytis cinerea; [3]): 625 µg/mL
- MIC (Alternaria solani; [4]): 1250 µg/mL
SMILES: CCCCCC(O)CC(=O)O (stereo not drawn) [3-Hydroxyoctanoic acid]

- MIC (Alternaria solani; [4]): 62.5 µg/mL
SMILES: CCCCCCC(C)CC(=O)O (stereo not drawn) [3-Methylnonanoic acid]

- MIC (Botrytis cinerea; [1]): 125 µg/mL
- MIC (Botrytis cinerea; [3]): 125 µg/mL
- MIC (Alternaria solani; [4]): 250 µg/mL
SMILES: CCCC(C)CC(=O)O (stereo not drawn) [3-Methylhexanoic acid]

SMILES: CC1COC(Cn2cncn2)(c2ccc(Oc3ccc(Cl)cc3)cc2Cl)O1 (stereo not drawn) [Difenoconazole, reference compound]
- MIC (Botrytis cinerea; Table 24, Compound A alone, 48 hours incubation, read-out: MIC (A)): 51 µg/mL
- MIC (Fusarium oxysporum; 48 h, Table 14, Compound A alone, incubation 48 hours, read-out: MIC (A)): 51 µg/mL
- MIC (Fusarium oxysporum; [5]): 51 µg/mL
- MIC (Fusarium oxysporum; 48 h, Table 30, Compound A alone, 48 hours incubation, read-out: MIC (A)): 51 µg/mL
- MIC (Sclerotinia sclerotiorum; Table 20A, Compound A alone, incubation 7 days, read-out: MIC (A)): 12.8 µg/mL
- MIC (Sclerotinia sclerotiorum; [6]): 25.5 µg/mL
- MIC (Sclerotinia sclerotiorum; Table 38, Compound A alone, 7 days incubation, read-out: MIC (A)): 25.5 µg/mL

SMILES: O=C(O)CCCCCCCCCCCO [12-Hydroxydodecanoic acid]
- MIC (Botrytis cinerea; read-out: MIC (B), Table 51, Compound B alone, 48 hours incubation): 100 µg/mL
- MIC (Botrytis cinerea; read-out: MIC (B), Table 55, Compound B alone, 48 hours incubation): 100 µg/mL
- MIC (Botrytis cinerea; read-out: MIC (B), Table 56, Compound B alone, 48 hours incubation): 100 µg/mL
- MIC (Botrytis cinerea; read-out: MIC (B), Table 59, Compound B alone, 48 hours incubation): 50 µg/mL
- MIC (Alternaria solani): 100 µg/mL

SMILES: CO/C=C(/C(=O)OC)c1ccccc1Oc1cc(Oc2ccccc2C#N)ncn1 [Azoxystrobin, reference compound]
- MIC (A) (Botrytis cinerea; Table 23, Compound A alone, incubation 48 hours): 75 µg/mL
- MIC (A) (Botrytis cinerea; Table 45, Compound A alone, 48 hours incubation): 75 µg/mL
- MIC (A) (Fusarium oxysporum; Table 11, Compound A alone, incubation 48 hours): 75 µg/mL
- MIC (A) (Fusarium oxysporum; Table 15B, Compound A alone, incubation 48 hours): 150 µg/mL
- MIC (A) (Fusarium oxysporum; Table 28, Compound A alone, 48 hours incubation): 150 µg/mL
- MIC (A) (Sclerotinia sclerotiorum; Table 17, Compound A alone, incubation 7 days): 150 µg/mL
- MIC (A) (Sclerotinia sclerotiorum; Table 20B, Compound A alone, incubation 7 days): 75 µg/mL
- MIC (A) (Sclerotinia sclerotiorum; Table 35, Compound A alone, 7 days incubation): 150 µg/mL

- MIC (Botrytis cinerea; [1]): 62.5 µg/mL
- MIC (Botrytis cinerea; [2]): 125 µg/mL
- MIC (Botrytis cinerea; [3]): 125 µg/mL
- MIC (Fusarium oxysporum; 48 h, Table 10, Compound B alone, incubation 48 hours, read-out: MIC (B)): 250 µg/mL
- MIC (Fusarium oxysporum; 48 h, Table 12, Compound B alone, incubation 48 hours, read-out: MIC (B)): 250 µg/mL
- MIC (Fusarium oxysporum; 48 h, Table 13, Compound B alone, incubation 48 hours, read-out: MIC (B)): 250 µg/mL
- MIC (Fusarium oxysporum; 48 h, Table 15B, Compound B alone, incubation 48 hours, read-out: MIC (B)): 250 µg/mL
- MIC (Sclerotinia sclerotiorum; Table 16, Compound B alone, incubation 7 days, read-out: MIC (B)): 125 µg/mL
- MIC (Sclerotinia sclerotiorum; Table 20B, Compound B alone, incubation 7 days, read-out: MIC (B)): 62.5 µg/mL
SMILES: CCCCCCCC(O)CC(=O)O (stereo not drawn) [3-Hydroxydecanoic acid, 3-hydroxydecanoic acid]

SMILES: Fc1ccc([C@]2(Cn3cncn3)O[C@H]2c2ccccc2Cl)cc1 (racemic) [Epoxiconazole, reference compound]
- MIC (Botrytis cinerea; [7]): 30 µg/mL
- MIC (Botrytis cinerea; Table 49, Compound A alone, 48 hours incubation, read-out: MIC (A)): 30 µg/mL
- MIC (Fusarium oxysporum; 48 h, Table 31, Compound A alone, 48 hours incubation, read-out: MIC (A)): 30 µg/mL
- MIC (Sclerotinia sclerotiorum; [8]): 30 µg/mL
- MIC (Sclerotinia sclerotiorum; [6]): 30 µg/mL
- MIC (Sclerotinia sclerotiorum; Table 40, Compound A alone, 7 days incubation, read-out: MIC (A)): 30 µg/mL

SMILES: Cc1cc(C2CC2)nc(Nc2ccccc2)n1 [Cyprodinil, reference compound]
- MIC (Botrytis cinerea; [7]): 4.5 µg/mL
- MIC (Botrytis cinerea; Table 26, Compound A alone, 48 hours incubation, read-out: MIC (A)): 4.5 µg/mL
- MIC (Botrytis cinerea; Table 47, Compound A alone, 48 hours incubation, read-out: MIC (A)): 4.5 µg/mL

- MIC (Botrytis cinerea; [1]): 78.1 µg/mL
- MIC (Botrytis cinerea; [3]): 78.1 µg/mL
- MIC (Alternaria solani; [4]): 312 µg/mL
SMILES: CCC(C)CCC(=O)O (stereo not drawn) [4-Methylhexanoic acid]

- MIC (Botrytis cinerea; [1]): 1250 µg/mL
- MIC (Alternaria solani; [4]): 2500 µg/mL
SMILES: CCCCC(O)C(=O)O (stereo not drawn) [2-Hydroxyhexanoic acid]

SMILES: CO/C=C(/C(=O)OC)c1ccccc1COc1cccc(C(F)(F)F)n1 [Picoxystrobin, reference compound]
- MIC (A) (Botrytis cinerea; Table 51, Compound A alone, 48 hours incubation): 250 µg/mL
- MIC (A) (Botrytis cinerea; Table 52, Compound A alone, 48 hours incubation): 250 µg/mL
- MIC (A) (Alternaria solani; 7 days incubation): 500 µg/mL
- MIC (A) (Alternaria solani; Table 60, 7 days incubation): 500 µg/mL

SMILES: COC(=O)N(OC)c1ccccc1COc1ccn(-c2ccc(Cl)cc2)n1 [Pyraclostrobin, pyraclostrobin, reference compound]
- MIC (Botrytis cinerea; Table 21, Compound A alone, incubation 48 hours, read-out: MIC (A)): 1.9 µg/mL
- MIC (Botrytis cinerea; [7]): 3.75 µg/mL
- MIC (Botrytis cinerea; Table 43, Compound A alone, 48 hours incubation, read-out: MIC (A)): 1.88 µg/mL
- MIC (Botrytis cinerea; Table 44, Compound A alone, 48 hours incubation, read-out: MIC (A)): 1.88 µg/mL
- MIC (Fusarium oxysporum; 24 h, Table 1, Compound A alone, 24 hour incubation, read-out: MIC(A)): 15.4 µg/mL
- MIC (Fusarium oxysporum; 48 h, Table 10, Compound A alone, incubation 48 hours, read-out: MIC (A)): 15 µg/mL
- MIC (Fusarium oxysporum; [5]): 15 µg/mL
- MIC (Fusarium oxysporum; 48 h, Table 27, Compound A alone, 48 hours incubation, read-out: MIC (A)): 15 µg/mL
- MIC (Sclerotinia sclerotiorum; Table 16, Compound A alone, incubation 7 days, read-out: MIC (A)): 7.5 µg/mL
- MIC (Sclerotinia sclerotiorum; [6]): 3.75 µg/mL
- MIC (Sclerotinia sclerotiorum; Table 33, Compound A alone, 7 days incubation, read-out: MIC (A)): 7.5 µg/mL
- MIC (Sclerotinia sclerotiorum; Table 34, Compound A alone, 7 days incubation, read-out: MIC (A)): 3.75 µg/mL

SMILES: CC(C)(C)C(O)(CCc1ccc(Cl)cc1)Cn1cncn1 (stereo not drawn) [Tebuconazole, reference compound]
- MIC (Botrytis cinerea; [7]): 112 µg/mL
- MIC (Botrytis cinerea; Table 25, Compound A alone, 48 hours incubation, read-out: MIC (A)): 112 µg/mL
- MIC (Botrytis cinerea; Table 50, Compound A alone, 48 hours incubation, read-out: MIC (A)): 112 µg/mL
- MIC (Fusarium oxysporum; 48 h, Table 15A, Compound A alone, incubation 48 hours, read-out: MIC (A)): 255 µg/mL
- MIC (Fusarium oxysporum; [5]): 225 µg/mL
- MIC (Fusarium oxysporum; 48 h, Table 32, Compound A alone, 48 hours incubation, read-out: MIC (A)): 225 µg/mL
- MIC (Sclerotinia sclerotiorum; [8]): 225 µg/mL
- MIC (Sclerotinia sclerotiorum; [6]): 56.2 µg/mL
- MIC (Sclerotinia sclerotiorum; Table 41, Compound A alone, 7 days incubation, read-out: MIC (A)): 112 µg/mL
- MIC (Sclerotinia sclerotiorum; Table 42, Compound A alone, incubation 7 days, read-out: MIC (A)): 112 µg/mL

SMILES: N#Cc1c(Cl)c(Cl)c(Cl)c(C#N)c1Cl [Chlorothalonil, reference compound]
- MIC (Botrytis cinerea; Table 46, Compound A alone, 48 hours incubation, read-out: MIC (A)): 0.0176 µg/mL
- MIC (Fusarium oxysporum; 48 h, Table 12, Compound A alone, incubation 48 hours, read-out: MIC (A)): 0.125 µg/mL
- MIC (Sclerotinia sclerotiorum; [6]): 0.0312 µg/mL
- MIC (Sclerotinia sclerotiorum; Table 36, Compound A alone, 7 days incubation, read-out: MIC (A)): 0.0312 µg/mL
